Earlier results, collected in patent US20070281957A1, “Crystalline Forms of Levorphanol” (Mallinckrodt Inc., priority 2006, published 2007).

Legend:
[1] = levorphanol free base, known physical property
[2] = levorphanol free base, known physical property; remark: listed apart in the source

CN1CC[C@]23CCCC[C@H]2[C@H]1Cc1ccc(O)cc13 [Levorphanol, 3-Hydroxy-N-methylmorphinan]
Vapor pressure (at 25° C.) [1]: 1.04 × 10^−6 mmHg | Water solubility (at 25° C.) [2]: 1840 µg/mL
